The text below walks through data of US9006455B2 (Bristol-Myers Squibb Company, priority 2009, dated 2015).

The test system of this test is HCV 1b genotype. As to the kind of experiment: HCV Replicon assay (HCV 1b genotype). The settings on record: Hepatitis C virus, HCV 1b genotype replicon. The test is classed as cell-based. The protocol: An HCV Replicon assay was utilized in the present disclosure, and was prepared, conducted and validated as described in commonly owned PCT/US2006/022197 and in O'Boyle et al., Antimicrob. Agents Chemother., 49(4):1346-1353 (April 2005). Assay methods incorporating luciferase reporters have also been used as described (Apath.com).
HCV-neo replicon cells and replicon cells containing resistance substitutions in the NS5A region were used to test the currently described family of compounds. The compounds were determined to have differing degrees of reduced inhibitory activity on cells containing mutations vs. the corresponding inhibitory potency against wild-type cells. Thus, the compounds of the present disclosure can be effective in inhibiting the function of the HCV NS5A protein and are understood to be as effective in combinations as previously described in application PCT/US2006/022197 and commonly owned WO 04/014852. It should be understood that the compounds of the present disclosure can inhibit multiple genotypes of HCV. […] In one embodiment, compounds of the present disclosure are inhibitory versus 1a, 1b, 2a, 2b, 3a, 4a, and 5a genotypes.

Setting [1] is: read-out: Range (EC50 values against HCV 1b).

Read-outs that look alike come from different tables or passages of the source.

With `CC(C)(C)OC(=O)N1[C@@H]2C[C@@H]2C[C@H]1c1nc2ccc(-c3ccc4nc(-c5ccc6nc([C@@H]7C[C@H]8C[C@H]8N7C(=O)OC(C)(C)C)[nH]c6c5)ccc4c3)cc2[nH]1` [Intermediate 70, tert-Butyl(1R,3S,5R)-3-(5-(2-(2-((1R,3S,5R)-2-(tert-butoxycarbonyl)-2-azabicyclo[3.1.0]hex-3-yl)-1H-benzimidazol-6-yl)-6-quinolinyl)-1H-benzimidazol-2-yl)-2-azabicyclo[3.1.0]hexane-2-carboxylate], under setting [1], the EC50 is 1.01 to 1000 nM.
As for `COC(=O)N[C@H](C(=O)N1[C@@H](C)CC[C@H]1c1ncc(-c2ccc(-c3ccc4cc(-c5cnc([C@@H]6CC[C@H](C)N6C(=O)[C@@H](NC(=O)OC)C6CCC(F)(F)CC6)[nH]5)ccc4c3)cc2)[nH]1)C1CCC(F)(F)CC1` [Example 71, Methyl((1S)-1-(4,4-difluorocyclohexyl)-2-((2S,5S)-2-(4-(4-(6-(2-((2S,5S)-1-((2S)-2-(4,4-difluorocyclohexyl)-2-((methoxycarbonyl)amino)acetyl)-5-methyl-2-pyrrolidinyl)-1H-imidazol-4-yl)-2-naphthyl)phenyl)-1H-imidazol-2-yl)-5-methyl-1-pyrrolidinyl)-2-oxoethyl)carbamate], under “read-out: EC50”, the EC50 came out at 0.00211 nM.
Turning to `COC(=O)N[C@H](C(=O)N1CCC[C@H]1c1nc2ccc(-c3ccc4cc(-c5ccc6nc([C@@H]7CCCN7C(=O)[C@@H](NC(=O)OC)C7CC7)[nH]c6c5)ccc4c3)cc2[nH]1)C1CC1` [Example 11, Dimethyl(2,6-naphthalenediylbis(1H-benzimidazole-5,2-diyl(2S)-2,1-pyrrolidinediyl((1S)-1-cyclopropyl-2-oxo-2,1-ethanediyl)))biscarbamate], the EC50 (read-out: EC50) stood at 0.0182 nM and the EC50 under setting [1] is 0.0101 to 1 nM.
As for `COC(=O)N[C@H](C(=O)N1C[C@@H](C)C[C@H]1c1ncc(-c2ccc(-c3ccc4cc(-c5cnc([C@@H]6C[C@H](C)CN6C(=O)[C@@H](NC(=O)OC)C6CCOCC6)[nH]5)ccc4c3)cc2)[nH]1)C1CCOCC1` [Example 129, Methyl(2-((2S,4S)-2-(4-(4-(6-(2-((2S,4S)-1-(((methoxycarbonyl)amino)(tetrahydro-2H-pyran-4-yl)acetyl)-4-methyl-2-pyrrolidinyl)-1H-imidazol-4-yl)-2-naphthyl)phenyl)-1H-imidazol-2-yl)-4-methyl-1-pyrrolidinyl)-2-oxo-1-(tetrahydro-2H-pyran-4-yl)ethyl)carbamate], under setting [1], the EC50 was 0.0101 to 1 nM.
Consider `COC(=O)N[C@H](C(=O)N1CCC[C@@H]1c1nc2ncc(-c3ccc4cc(-c5cnc6nc([C@@H]7CCCN7C(=O)[C@@H](NC(=O)OC)C(C)C)[nH]c6c5)ccc4c3)cc2[nH]1)C(C)C` [Example 23, Methyl((1S)-1-(((2R)-2-(6-(6-(2-((2S)-1-((2S)-2-((methoxycarbonyl)amino)-3-methylbutanoyl)-2-pyrrolidinyl)-1H-imidazo[4,5-b]pyridin-6-yl)-2-naphthyl)-1H-imidazo[4,5-b]pyridin-2-yl)-1-pyrrolidinyl)carbonyl)-2-methylpropyl)carbamate], for which the EC50 was 0.888 nM (read-out: EC50) and 0.0101 to 1 nM under setting [1].
As for `COC(=O)N[C@H](C(=O)N1CCC[C@H]1c1ncc(-c2ccc(-c3ccc4cc(-c5ccc6nc([C@@H]7CCCN7C(=O)[C@@H](NC(=O)OC)C(C)C)[nH]c6c5)ccc4c3)cc2)[nH]1)C(C)C` [Example 3, Methyl((1S)-1-(((2S)-2-(4-(4-(6-(2-(1-((2S)-2-((methoxycarbonyl)amino)-3-methylbutanoyl)-2-pyrrolidinyl)-1H-benzimidazol-5-yl)-2-naphthyl)phenyl)-1H-imidazol-2-yl)-1-pyrrolidinyl)carbonyl)-2-methylpropyl)carbamate], the EC50 under setting [1] lay in the range of 0.0101 to 1 nM.
Regarding `COC(=O)N[C@H](C(=O)N1CCC[C@H]1c1nc2ccc(-c3ccc4cc(-c5ccc6nc([C@@H]7CCCN7C(=O)[C@@H](NC(=O)OC)C(C)C)[nH]c6c5)ccc4c3)cc2[nH]1)C(C)C` [Example 2, Methyl((1S)-1-(((2S)-2-(5-(6-(2-((2S)-1-((2S)-2-((methoxycarbonyl)amino)-3-methylbutanoyl)-2-pyrrolidinyl)-1H-benzimidazol-5-yl)-2-naphthyl)-1H-benzimidazol-2-yl)-1-pyrrolidinyl)carbonyl)-2-methylpropyl)carbamate], the EC50 (read-out: EC50) came to 0.00218 nM.
`COC(=O)N[C@H](C(=O)N1CCC[C@H]1c1ncc(-c2ccc(-c3ccc4ccc(-c5ccc6nc([C@@H]7CCCN7C(=O)[C@@H](NC(=O)OC)C(C)C)[nH]c6c5)cc4c3)cc2)[nH]1)C(C)C` [Example 4, Methyl((1S)-1-(((2S)-2-(4-(4-(7-(2-((2S)-1-((2S)-2-((methoxycarbonyl)amino)-3-methylbutanoyl)-2-pyrrolidinyl)-1H-benzimidazol-5-yl)-2-naphthyl)phenyl)-1H-imidazol-2-yl)-1-pyrrolidinyl)carbonyl)-2-methylpropyl)carbamate]: under setting [1], the EC50 was in the range of 1.01 to 1000 nM.
The same measure, in the same setting: to `COC(=O)N[C@H](C(=O)N1CCC[C@H]1c1ncc(-c2ccc3cc(-c4ccc5nc([C@@H]6CCCN6C(=O)[C@@H](NC(=O)OC)C6CCOCC6)[nH]c5c4)ccc3c2)[nH]1)C1CCOCC1` [Example 28, Methyl((1S)-2-((2S)-2-(4-(6-(2-((2S)-1-((2S)-2-((methoxycarbonyl)amino)-2-(tetrahydro-2H-pyran-4-yl)acetyl)-2-pyrrolidinyl)-1H-benzimidazol-5-yl)-2-naphthyl)-1H-imidazol-2-yl)-1-pyrrolidinyl)-2-oxo-1-(tetrahydro-2H-pyran-4-yl)ethyl)carbamate] belongs 0.0101 to 1 nM.
Turning to `COC(=O)N[C@H](C(=O)N1[C@@H]2C[C@@H]2C[C@H]1c1nc2ccc(-c3ccc4cc(-c5ccc6cc(-c7ccc8nc([C@@H]9C[C@H]%10C[C@H]%10N9C(=O)[C@@H](NC(=O)OC)C(C)C)[nH]c8c7)ccc6c5)ccc4c3)cc2[nH]1)C(C)C` [Example 46, Methyl((1S)-1-(((1R,3S,5R)-3-(5-(6′-(2-((1R,3S,5R)-2-((2S)-2-((methoxycarbonyl)amino)-3-methylbutanoyl)-2-azabicyclo[3.1.0]hex-3-yl)-1H-benzimidazol-5-yl)-2,2′-binaphthalen-6-yl)-1H-benzimidazol-2-yl)-2-azabicyclo[3.1.0]hex-2-yl)carbonyl)-2-methylpropyl)carbamate], the EC50 is, setting by setting: (read-out: EC50) 170 nM; under setting [1], 1.01 to 1000 nM.
With `COC(=O)N[C@@H](C(=O)N1CCC[C@H]1c1nc2cc(-c3ccc4ccc(-c5ccc6nc([C@@H]7CCCN7C(=O)[C@H](NC(=O)OC)C(C)C)[nH]c6c5)cc4c3)ccc2[nH]1)C(C)C` [Example 14, Methyl((1R)-1-(((2S)-2-(5-(7-(2-((2S)-1-((2R)-2-((methoxycarbonyl)amino)-3-methylbutanoyl)-2-pyrrolidinyl)-1H-benzimidazol-5-yl)-2-naphthyl)-1H-benzimidazol-2-yl)-1-pyrrolidinyl)carbonyl)-2-methylpropyl)carbamate], under setting [1], the 50% effective concentration (EC50) fell in the range of 1.01 to 1000 nM.
As to `O=C([C@@H](c1ccccc1)N1CCCCC1)N1CCC[C@H]1c1nc2cc(-c3ccc4ccc(-c5ccc6nc([C@@H]7CCCN7C(=O)[C@@H](c7ccccc7)N7CCCCC7)[nH]c6c5)cc4c3)ccc2[nH]1` [Example 15, 5,5′-(2,7-Naphthalenediyl)bis(2-((2S)-1-((2R)-2-phenyl-2-(1-piperidinyl)acetyl)-2-pyrrolidinyl)-1H-benzimidazole)], under setting [1], the EC50 fell in the range of 0.0101 to 1 nM.
In the case of `COC(=O)N[C@H](C(=O)N1C(c2ncc(-c3ccc4cc(-c5cccc(-c6c[nH]c([C@@H]7C[C@H]8C[C@H]8N7C(=O)[C@@H](NC(=O)OC)C(C)C)n6)c5)ccc4c3)[nH]2)CC2CC21)C(C)C` (stereo in doubt) [Example 51, Methyl((1S)-1-(((1S,3R,5S)-3-(4-(6-(3-(2-((1R,3S,5R)-2-((2S)-2-((methoxycarbonyl)amino)-3-methylbutanoyl)-2-azabicyclo[3.1.0]hex-3-yl)-1H-imidazol-4-yl)phenyl)-2-naphthyl)-1H-imidazol-2-yl)-2-azabicyclo[3.1.0]hex-2-yl)carbonyl)-2-methylpropyl)carbamate], under setting [1], the EC50 lay within 0.0101 to 1 nM.
As to `COC(=O)N[C@H](C(=O)N1CCC[C@H]1c1ncc(C#Cc2ccc3cc(C#Cc4cnc([C@@H]5CCCN5C(=O)[C@@H](NC(=O)OC)C(C)C)[nH]4)ccc3c2)[nH]1)C(C)C` [Example 31, Methyl((1S)-1-(((2S)-2-(4-((6-((2-((2S)-1-((2S)-2-((methoxycarbonyl)amino)-3-methylbutanoyl)-2-pyrrolidinyl)-1H-imidazol-4-yl)ethynyl)-2-naphthyl)ethynyl)-1H-imidazol-2-yl)-1-pyrrolidinyl)carbonyl)-2-methylpropyl)carbamate], under setting [1], the EC50 was in the range of 0.0101 to 1 nM.
With `COC(=O)N[C@H](C(=O)N1[C@@H]2C[C@@H]2C[C@H]1c1ncc(-c2cnc3cc(-c4ccc5nc([C@@H]6C[C@H]7C[C@H]7N6C(=O)[C@@H](NC(=O)OC)C6CCOCC6)[nH]c5c4)ccc3n2)[nH]1)C1CCOCC1` [Example 58, Methyl((1S)-2-((1R,3S,5R)-3-(4-(6-(2-((1R,3S,5R)-2-((2S)-2-((methoxycarbonyl)amino)-2-(tetrahydro-2H-pyran-4-yl)acetyl)-2-azabicyclo[3.1.0]hex-3-yl)-1H-benzimidazol-5-yl)-2-quinoxalinyl)-1H-imidazol-2-yl)-2-azabicyclo[3.1.0]hex-2-yl)-2-oxo-1-(tetrahydro-2H-pyran-4-yl)ethyl)carbamate], the EC50 by setting is: (read-out: EC50) 0.849 nM; under setting [1], 0.0101 to 1 nM.
